# Laboratory results: PubChem BioAssay (NCI)
#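 All cell lines were grown in 96-well plates and treated with compound for 48 hours. Abbreviation: GI50, concentration required for 50% inhibition of growth. At the TGI there is no net growth.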
# How the values were obtained:
# Experiment in all cases: NCI anticancer screen, dose series, 48 h
# SF-539 CNS = system: SF-539 CNS
# MOLT-4 leukemia = system: MOLT-4 leukemia
# HCT-15 colon = system: HCT-15 colon
# SNB-19 CNS = system: SNB-19 CNS
# SW-620 colon = system: SW-620 colon
# MALME-3M melanoma = system: MALME-3M melanoma
# HOP-62 NSCLC = system: HOP-62 NSCLC
# HCC-2998 colon = system: HCC-2998 colon
# SK-MEL-5 melanoma = system: SK-MEL-5 melanoma
# CAKI-1 renal = system: CAKI-1 renal
# K-562 leukemia = system: K-562 leukemia
# UO-31 renal = system: UO-31 renal
# NCI-H460 lung = system: NCI-H460 lung
# DU-145 prostate = system: DU-145 prostate
# HS 578T breast = system: HS 578T breast
# 786-0 renal = system: 786-0 renal
# NCI-H522 lung = system: NCI-H522 lung
# SF-295 CNS = system: SF-295 CNS
# NCI-H23 lung = system: NCI-H23 lung
# HCT-116 colon = system: HCT-116 colon
# SK-OV-3 ovarian = system: SK-OV-3 ovarian
# OVCAR-5 ovarian = system: OVCAR-5 ovarian
# LOX IMVI melanoma = system: LOX IMVI melanoma
# MDA-MB-435 = system: MDA-MB-435
# SK-MEL-2 melanoma = system: SK-MEL-2 melanoma
# IGROV1 ovarian = system: IGROV1 ovarian
# EKVX NSCLC = system: EKVX NSCLC
# UACC-62 melanoma = system: UACC-62 melanoma
# RPMI-8226 leukemia = system: RPMI-8226 leukemia
# A549 NSCLC = system: A549 NSCLC
# OVCAR-3 ovarian = system: OVCAR-3 ovarian
# A498 renal = system: A498 renal
# NCI/ADR-RES ovarian = system: NCI/ADR-RES ovarian
# MDA-MB-231 breast = system: MDA-MB-231 breast
# OVCAR-4 ovarian = system: OVCAR-4 ovarian
# KM12 colon = system: KM12 colon
# HL-60(TB) leukemia = system: HL-60(TB) leukemia
# BT-549 breast = system: BT-549 breast
# T-47D breast = system: T-47D breast
# M14 melanoma = system: M14 melanoma
# RXF 393 renal = system: RXF 393 renal
# MCF7 breast = system: MCF7 breast
# HOP-92 NSCLC = system: HOP-92 NSCLC
# SF-268 CNS = system: SF-268 CNS
# SN12C renal = system: SN12C renal
# TK-10 renal = system: TK-10 renal
# ACHN renal = system: ACHN renal
# COLO 205 colon = system: COLO 205 colon
# UACC-257 melanoma = system: UACC-257 melanoma
# SNB-75 CNS = system: SNB-75 CNS
# U251 CNS = system: U251 CNS
# CCRF-CEM leukemia = system: CCRF-CEM leukemia
# PC-3 prostate = system: PC-3 prostate
# SR leukemia = system: SR leukemia
# SK-MEL-28 melanoma = system: SK-MEL-28 melanoma
# NCI-H226 lung = system: NCI-H226 lung
# OVCAR-8 ovarian = system: OVCAR-8 ovarian
# HT29 colon = system: HT29 colon
smiles,measurement,setting,value
Clc1ccc(-c2cn(-c3ccccc3)c(-c3ccccc3)n2)c(Cl)c1,GI50,SF-539 CNS,2.2 µM
same,TGI,SF-539 CNS,> 50 µM
same,GI50,MOLT-4 leukemia,> 20.5 µM
same,TGI,MOLT-4 leukemia,> 50 µM
same,GI50,HCT-15 colon,2.91 µM
same,TGI,HCT-15 colon,> 50 µM
same,GI50,SNB-19 CNS,6.98 µM
same,TGI,SNB-19 CNS,> 42.6 µM
same,GI50,SW-620 colon,1.01 µM
same,TGI,SW-620 colon,2.07 µM
same,GI50,MALME-3M melanoma,1.32 µM
same,TGI,MALME-3M melanoma,6.92 µM
same,GI50,HOP-62 NSCLC,1.36 µM
same,TGI,HOP-62 NSCLC,5.02 µM
same,TGI,HCC-2998 colon,> 25.5 µM
same,GI50,SK-MEL-5 melanoma,48.5 µM
same,TGI,SK-MEL-5 melanoma,> 50 µM
same,GI50,CAKI-1 renal,1.2 µM
same,TGI,CAKI-1 renal,4.4 µM
same,GI50,K-562 leukemia,> 24.6 µM
same,TGI,K-562 leukemia,> 50 µM
same,GI50,UO-31 renal,10.2 µM
same,TGI,UO-31 renal,> 50 µM
same,GI50,NCI-H460 lung,1.09 µM
same,TGI,NCI-H460 lung,2.39 µM
same,GI50,DU-145 prostate,0.892 µM
same,TGI,DU-145 prostate,2.09 µM
same,GI50,HS 578T breast,1.27 µM
same,TGI,HS 578T breast,6.02 µM
same,GI50,786-0 renal,1.14 µM
same,TGI,786-0 renal,2.56 µM
same,GI50,NCI-H522 lung,> 24.2 µM
same,TGI,NCI-H522 lung,> 50 µM
same,GI50,SF-295 CNS,1.45 µM
same,TGI,SF-295 CNS,4.68 µM
same,GI50,NCI-H23 lung,> 16.2 µM
same,TGI,NCI-H23 lung,> 50 µM
same,GI50,HCT-116 colon,1.09 µM
same,TGI,HCT-116 colon,2.66 µM
same,GI50,SK-OV-3 ovarian,5.15 µM
same,TGI,SK-OV-3 ovarian,> 35.7 µM
same,GI50,OVCAR-5 ovarian,> 16 µM
same,TGI,OVCAR-5 ovarian,> 45.1 µM
same,GI50,LOX IMVI melanoma,> 14 µM
same,TGI,LOX IMVI melanoma,> 50 µM
same,GI50,MDA-MB-435,1.69 µM
same,TGI,MDA-MB-435,10.1 µM
same,GI50,SK-MEL-2 melanoma,> 50 µM
same,TGI,SK-MEL-2 melanoma,> 50 µM
same,GI50,IGROV1 ovarian,2.92 µM
same,TGI,IGROV1 ovarian,> 44.8 µM
same,GI50,EKVX NSCLC,> 18.5 µM
same,TGI,EKVX NSCLC,> 50 µM
same,GI50,UACC-62 melanoma,> 20.2 µM
same,TGI,UACC-62 melanoma,> 50 µM
same,GI50,RPMI-8226 leukemia,4.93 µM
same,TGI,RPMI-8226 leukemia,> 10.2 µM
same,GI50,A549 NSCLC,1.77 µM
same,GI50,OVCAR-3 ovarian,0.861 µM
same,TGI,OVCAR-3 ovarian,1.73 µM
same,GI50,A498 renal,12.6 µM
same,TGI,A498 renal,> 45.1 µM
same,GI50,NCI/ADR-RES ovarian,3.51 µM
same,TGI,NCI/ADR-RES ovarian,> 44.9 µM
same,GI50,MDA-MB-231 breast,23 µM
same,TGI,MDA-MB-231 breast,> 50 µM
same,GI50,OVCAR-4 ovarian,0.884 µM
same,TGI,OVCAR-4 ovarian,1.81 µM
same,GI50,KM12 colon,0.932 µM
same,TGI,KM12 colon,2.02 µM
same,GI50,HL-60(TB) leukemia,9.74 µM
same,TGI,HL-60(TB) leukemia,> 50 µM
same,GI50,BT-549 breast,3.42 µM
same,TGI,BT-549 breast,> 50 µM
same,GI50,T-47D breast,2.52 µM
same,TGI,T-47D breast,> 50 µM
same,GI50,M14 melanoma,2.47 µM
same,TGI,M14 melanoma,> 15.1 µM
same,GI50,RXF 393 renal,2.11 µM
same,TGI,RXF 393 renal,11.9 µM
same,GI50,MCF7 breast,1.56 µM
same,TGI,MCF7 breast,> 12.3 µM
same,GI50,HOP-92 NSCLC,11.7 µM
same,TGI,HOP-92 NSCLC,> 50 µM
same,GI50,SF-268 CNS,1.78 µM
same,TGI,SF-268 CNS,> 11 µM
same,GI50,SN12C renal,4.09 µM
same,TGI,SN12C renal,> 30.1 µM
same,GI50,TK-10 renal,1.14 µM
same,TGI,TK-10 renal,2.17 µM
same,GI50,ACHN renal,2.22 µM
same,TGI,ACHN renal,> 50 µM
same,GI50,COLO 205 colon,1.14 µM
same,TGI,COLO 205 colon,3.03 µM
same,GI50,UACC-257 melanoma,> 22.8 µM
same,TGI,UACC-257 melanoma,> 50 µM
same,GI50,SNB-75 CNS,0.864 µM
same,TGI,SNB-75 CNS,2.2 µM
same,GI50,U251 CNS,1.25 µM
same,TGI,U251 CNS,3.83 µM
same,GI50,CCRF-CEM leukemia,2.51 µM
same,TGI,CCRF-CEM leukemia,> 50 µM
same,GI50,PC-3 prostate,5.43 µM
same,TGI,PC-3 prostate,> 50 µM
same,GI50,SR leukemia,1.05 µM
same,TGI,SR leukemia,4.01 µM
same,GI50,SK-MEL-28 melanoma,4.86 µM
same,TGI,SK-MEL-28 melanoma,> 41.2 µM
same,GI50,NCI-H226 lung,> 26 µM
same,TGI,NCI-H226 lung,> 50 µM
same,GI50,OVCAR-8 ovarian,3.18 µM
same,TGI,OVCAR-8 ovarian,> 31.5 µM
same,GI50,HT29 colon,1.79 µM
same,TGI,HT29 colon,> 50 µM
